# Laboratory results as given in patent publication US20170305857A1, “N-ACYLPIPERIDINE ETHER TROPOMYOSIN-RELATED KINASE INHIBITORS” (Pfizer Limited, priority 2014, published 2017).
# pIC50: −log10 of the molar value.
# Target: T1, recombinant His-tagged cytoplasmic domains of TRKA receptor (NTRK1, PV3144, aa 441-796) (Homo sapiens, UniProt P04629)
# T1 construct: aa 441-796; His; purchased Invitrogen PV3144
# Assay: Isolated TRK enzyme assay (HTRF KinEASE-TK, PV3144 TrkA enzyme assay)
# Format: biochemical
# Conditions: 4 nM enzyme, 40 uM ATP, 35 min, arithmetic mean where more than one reading
# Procedure: Isolated TRK Enzyme assays use the HTRF KinEASE-TK kit (Cisbio Cat #62TK0PEJ) with recombinant His-tagged cytoplasmic domains of TRKA receptor sourced from Invitrogen (see table below). This activity-assay measures the phosphorylation of tyrosine residues within a substrate from the HTRF kit which has been validated by Cisbio for a variety of tyrosine kinases including the TRK receptors.
# 0.5 mM stock solutions of test compounds are prepared and serially diluted in 100% DMSO. […] Greiner low volume black plates containing 0.2 ul of serially diluted compound, standard and HPE/ZPE are created using the Bravo nanolitre dispenser.
# 1× enzyme buffer is prepared from 5× Enzymatic Buffer from the Cisbio KinEASE TK kit using MilliQ water. The buffer is then supplemented with 10 mM MgCl and 2 mM DTT (both from Sigma).
# Following this preactivation step, 5 ul/well of enzyme+ATP mix is added using a Multidrop Micro to the assay plate, spotted with 0.2 ul 100% DMSO compound. This is left for 20 mins at room temperature before adding 5 ul of 2 uM TK-substrate-Biotin (from the Cisbio kit) diluted in 1× enzyme buffer (1 uM FAC) using the Multidrop Micro. The reaction is incubated at room temperature for the optimized assay reaction time (see table).
# After the Detection Reagent addition, plates are covered and incubated at room temperature for 60 minutes. […] Test compound data are expressed as percentage inhibition defined by HPE and ZPE values for each plate. Percentage inhibition in the presence of test compound is plotted against compound concentration on a log scale to determine an IC50 from the resultant sigmoid curve.
# Where more than one reading was taken, the arithmetic mean is presented.
# T1 sequence (P04629 441-796): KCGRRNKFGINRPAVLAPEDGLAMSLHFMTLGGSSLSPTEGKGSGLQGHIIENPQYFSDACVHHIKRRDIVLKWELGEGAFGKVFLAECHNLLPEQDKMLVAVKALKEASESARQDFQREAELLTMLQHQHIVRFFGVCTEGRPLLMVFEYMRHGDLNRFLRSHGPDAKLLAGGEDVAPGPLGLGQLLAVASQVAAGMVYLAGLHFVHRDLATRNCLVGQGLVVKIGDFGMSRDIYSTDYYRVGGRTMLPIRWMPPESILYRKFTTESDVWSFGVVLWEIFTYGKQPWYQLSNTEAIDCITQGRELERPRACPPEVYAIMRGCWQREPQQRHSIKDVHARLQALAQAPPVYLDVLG
row,pIC50,SMILES
1,8.59,"NC(=O)c1cc(-c2cnn(C3COC3)c2)ccc1OC1CCN(C(=O)Cc2ccc(OC(F)(F)F)cc2)CC1 [Example 57, 5-[1-(oxetan-3-yl)-1H-pyrazol-4-yl]-2-[(1-{[4-(trifluoromethoxy)phenyl]acetyl}piperidin-4-yl)oxy]benzamide]"
2,8.26,"NC(=O)c1cc(-c2cnn(CCO)c2)ccc1OC1CCN(C(=O)Cc2ccc(OC(F)(F)F)cc2)CC1 [Example 58, 5-[1-(2-hydroxyethyl)-1H-pyrazol-4-yl]-2-[(1-{[4-(trifluoromethoxy)phenyl]acetyl}piperidin-4-yl)oxy]benzamide]"
3,8.00,"Cc1n[nH]c(C)c1-c1cnc(OC2CCN(C(=O)Cc3ccc(OC(F)(F)F)cc3)CC2)c(C(N)=O)c1 [Example 59, 5-(3,5-dimethyl-1H-pyrazol-4-yl)-2-[(1-{[4-(trifluoromethoxy)phenyl]acetyl}piperidin-4-yl)oxy]pyridine-3-carboxamide]"
4,8.00,"NC(=O)c1cc(-c2cc[nH]n2)cnc1OC1CCN(C(=O)Cc2ccc(SC(F)(F)F)cc2)CC1 [Example 60, 5-(1H-pyrazol-3-yl)-2-{[1-({4-[(trifluoromethyl)sulfanyl]phenyl}acetyl)piperidin-4-yl]oxy}pyridine-3-carboxamide]"
5,8.40,"CC(C)(CO)n1cc(-c2ccc(OC3CCN(C(=O)Cc4ccc(OC(F)(F)F)cc4)CC3)c(C(N)=O)c2)cn1 [Example 62, 5-[1-(1-hydroxy-2-methylpropan-2-yl)-1H-pyrazol-4-yl]-2-[(1-{[4-(trifluoromethoxy)phenyl]acetyl}piperidin-4-yl)oxy]benzamide]"
6,8.17,"NC(=O)c1cc(-c2ccc3c(c2)CNS3(=O)=O)ccc1OC1CCN(C(=O)Cc2ccc(OC(F)(F)F)cc2)CC1 [Example 63, 5-(1,1-dioxido-2,3-dihydro-1,2-benzothiazol-5-yl)-2-[(1-{[4-(trifluoromethoxy)phenyl]acetyl}piperidin-4-yl)oxy]benzamide]"
7,8.55,"C[C@@H](N)c1ccc(-c2ccc(OC3CCN(C(=O)Cc4ccc(OC(F)(F)F)cc4)CC3)c(C(N)=O)c2)cc1 [Example 64, 4′-[(1R)-1-aminoethyl]-4-[(1-{[4-(trifluoromethoxy)phenyl]acetyl}piperidin-4-yl)oxy]biphenyl-3-carboxamide]"
8,8.46,"CC(C)(N)c1ccc(-c2ccc(OC3CCN(C(=O)Cc4ccc(OC(F)(F)F)cc4)CC3)c(C(N)=O)c2)cc1 [Example 65, 4'-(2-aminopropan-2-yl)-4-[(1-{[4-(trifluoromethoxy)phenyl]acetyl}piperidin-4-yl)oxy]biphenyl-3-carboxamide]"
9,8.55,"C[C@H](N)c1ccc(-c2ccc(OC3CCN(C(=O)Cc4ccc(OC(F)(F)F)cc4)CC3)c(C(N)=O)c2)cc1 [Example 66, 4'-[(1S)-1-aminoethyl]-4-[(1-{[4-(trifluoromethoxy)phenyl]acetyl}piperidin-4-yl)oxy]biphenyl-3-carboxamide]"
10,8.21,"Cc1nc(OC2CCN(C(=O)Cc3ccc(OC(F)(F)F)cc3)CC2)c(C(N)=O)cc1-c1cn(C)cn1 [Example 69, 6-methyl-5-(1-methyl-1H-imidazol-4-yl)-2-[(1-{[4-(trifluoromethoxy)phenyl]acetyl}piperidin-4-yl)oxy]pyridine-3-carboxamide]"
11,8.80,"NC(=O)c1cc(-c2cn[nH]c2)cnc1O[C@@H]1CCN(C(=O)Cc2ccc(OC(F)(F)F)cc2)C[C@@H]1F [Example 70, 2-{[(3S,4R)-3-fluoro-1-{[4-(trifluoromethoxy)phenyl]acetyl}piperidin-4-yl]oxy}-5-(1H-pyrazol-4-yl)pyridine-3-carboxamide]"
12,8.89,"Cn1cc(-c2cnc(O[C@@H]3CCN(C(=O)Cc4ccc(OC(F)(F)F)cc4)C[C@@H]3F)c(C(N)=O)c2)cn1 [Example 71, 2-{[(3S,4R)-3-fluoro-1-{[4-(trifluoromethoxy)phenyl]acetyl}piperidin-4-yl]oxy}-5-(1-methyl-1H-pyrazol-4-yl)pyridine-3-carboxamide]"
13,8.89,"NC(=O)c1cc(-c2cn[nH]c2)cnc1O[C@H]1CCN(C(=O)Cc2ccc(OC(F)(F)F)cc2)C[C@H]1F [Example 72, 2-{[(3R,4S)-3-fluoro-1-{[4-(trifluoromethoxy)phenyl]acetyl}piperidin-4-yl]oxy}-5-(1H-pyrazol-4-yl)pyridine-3-carboxamide]"
14,9.05,"NC(=O)c1cc(-c2cn[nH]c2)ccc1O[C@@H]1CCN(C(=O)Cc2ccc(OC(F)(F)F)cc2)C[C@@H]1F [Example 73, 2-{[(3S,4R)-3-fluoro-1-{[4-(trifluoromethoxy)phenyl]acetyl}piperidin-4-yl]oxy}-5-(1H-pyrazol-4-yl)benzamide]"
15,9.05,"Cn1cc(-c2ccc(O[C@@H]3CCN(C(=O)Cc4ccc(OC(F)(F)F)cc4)C[C@@H]3F)c(C(N)=O)c2)cn1 [Example 74, 2-{[(3S,4R)-3-fluoro-1-{[4-(trifluoromethoxy)phenyl]acetyl}piperidin-4-yl]oxy}-5-(1-methyl-1H-pyrazol-4-yl)benzamide]"
16,9.05,"Cn1cc(-c2ccc(O[C@H]3CCN(C(=O)Cc4ccc(OC(F)(F)F)cc4)C[C@H]3F)c(C(N)=O)c2)cn1 [Example 75, 2-{[(3R,4S)-3-fluoro-1-{[4-{trifluoromethoxy)phenyl]acetyl}piperidin-4-yl]oxy}-5-(1-methyl-1H-pyrazol-4-yl)benzamide]"
17,8.92,"NC(=O)c1cc(-c2cnn(C3CS(=O)(=O)C3)c2)ccc1O[C@H]1CCN(C(=O)Cc2ccc(OC(F)(F)F)cc2)C[C@H]1F [Example 76, 5-[1-(1,1-dioxidothietan-3-yl)-1H-pyrazol-4-yl]-2-{[(3R,4S)-3-fluoro-1-{[4-(trifluoromethoxy)phenyl]acetyl}pipertdin-4-yl]oxy}benzamide]"
18,8.80,"Cc1nc(-c2ccc(O[C@H]3CCN(C(=O)Cc4ccc(OC(F)(F)F)cc4)C[C@H]3F)c(C(N)=O)c2)c[nH]1 [Example 77, 2-{[(3R,4S)-3-fluoro-1-{[4-(trifluoromethoxy)phenyl]acetyl}pipertdin-4-yl]oxy}-5-(2-methyl-1H-imidazol-4-yl)benzamide]"
19,8.59,"NC(=O)c1cc(-c2cn[nH]c2)cnc1O[C@@H]1CCN(C(=O)Cc2ccc(OC3CC3)cn2)C[C@@H]1F [Example 78, 2-{[(3S,4R)-1-{[5-(cyclopropyloxy)pyridin-2-yl]acetyl}-3-fluoropiperidin-4-yl]oxy}-5-(1H-pyrazol-4-yl)pyridine-3-carboxamide]"
20,8.16,"Cc1n[nH]c(C)c1-c1cnc(O[C@@H]2CCN(C(=O)Cc3ccc(OC4CC4)cn3)C[C@@H]2F)c(C(N)=O)c1 [Example 79, 2-{[(3S,4R)-1-{[5-(cyclopropyloxy)pyridin-2-yl]acetyl}-3-fluoropiperidin-4-yl]oxy}-5-(3,5-dimethyl-1H-pyrazol-4-yl)pyridine-3-carboxamide]"
21,8.00,"NC(=O)c1cc(-c2cn[nH]c2)cnc1O[C@H]1CCN(C(=O)Cc2ccc(OC3CC3)cn2)C[C@@H]1F [Example 80, 2-{[(3S,4S)-1-{[5-(cyclopropyloxy)pyridin-2-yl]acetyl}-3-fluoropiperidin-4-yl]oxy}-5-(1H-pyrazol-4-yl)pyridine-3-carboxamide]"
22,8.60,"NC(=O)c1cc(-c2c[nH]cn2)cnc1O[C@@H]1CCN(C(=O)Cc2ccc(OC(F)(F)F)cc2)C[C@@H]1F [Example 81, 2-{[(3S,4R)-3-fluoro-1-{[4-(trifluoromethoxy)phenyl]acetyl}piperidin-4-yl]oxy}-5-(1H-imidazol-4-yl)pyridine-3-carboxamide]"
23,8.38,"NC(=O)c1cc(-c2c[nH]cn2)cnc1O[C@H]1CCN(C(=O)Cc2ccc(OC(F)(F)F)cc2)C[C@@H]1F [Example 82, 2-{[(3S,4S)-3-fluoro-1-{[4-(trifluoromethoxy)phenyl]acetyl}piperidin-4-yl]oxy}-5-(1H-imidazol-4-yl)pyridine-3-carboxamide]"
24,8.85,"NC(=O)c1cc(-c2cn[nH]c2)ccc1O[C@@H]1CCN(C(=O)Cc2ccc(OC3CC3)cn2)C[C@@H]1F [Example 83, 2-{[(3S,4R)-1-{[5-(cyclopropyloxy)pyridin-2-yl]acetyl}-3-fluoropiperidin-4-yl]oxy}-5-(1H-pyrazol-4-yl)benzamide]"
25,8.36,"NC(=O)c1cc(-c2cn[nH]c2)ccc1O[C@H]1CCN(C(=O)Cc2ccc(OC3CC3)cn2)C[C@@H]1F [Example 84, 2-{[(3S,4S)-1-{[5-(cyclopropyloxy)pyridin-2-yl]acetyl}-3-fluoropiperidin-4-yl]oxy}-5-(1H-pyrazol-4-yl)benzamide]"
26,8.77,"NC(=O)c1cc(-c2cn[nH]c2)ncc1O[C@@H]1CCN(C(=O)Cc2ccc(OC(F)(F)F)cc2)C[C@@H]1F [Example 85, 5-{[(3S,4R)-3-fluoro-1-{[4-(trifluoromethoxy)phenyl]acetyl}piperidin-4-yl]oxy}-2-(1H-pyrazol-4-yl)pyridine-4-carboxamide]"
27,7.98,"NC(=O)c1cc(-c2cn[nH]c2)ncc1O[C@H]1CCN(C(=O)Cc2ccc(OC(F)(F)F)cc2)C[C@@H]1F [Example 86, 5-{[(3S,4S)-3-fluoro-1-{[4-(trifluoromethoxy)phenyl]acetyl}piperidin-4-yl]oxy}-2-(1H-pyrazol-4-yl)pyridine-4-carboxamide]"
